Measured values reported in PubChem BioAssay (NCI).
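Where inhibition never reached the appropriate level, the endpoint shown equals the highest concentration tested. Otherwise, values were interpolated linearly from a five-concentration, 48-hour dose response in 96-well plates. GI50 = concentration required for 50% inhibition of growth. TGI is the concentration that stops growth completely.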

How the values were obtained:
Assay in all cases: inhibition of tumour cell growth, NCI panel, 48 h
K-562 leukemia = system: K-562 leukemia
NCI-H226 lung = system: NCI-H226 lung
EKVX NSCLC = system: EKVX NSCLC
OVCAR-3 ovarian = system: OVCAR-3 ovarian
OVCAR-4 ovarian = system: OVCAR-4 ovarian
SF-268 CNS = system: SF-268 CNS
IGROV1 ovarian = system: IGROV1 ovarian
A498 renal = system: A498 renal
A549 NSCLC = system: A549 NSCLC
CCRF-CEM leukemia = system: CCRF-CEM leukemia
SK-MEL-2 melanoma = system: SK-MEL-2 melanoma
U251 CNS = system: U251 CNS
TK-10 renal = system: TK-10 renal
SN12C renal = system: SN12C renal
SNB-75 CNS = system: SNB-75 CNS
SR leukemia = system: SR leukemia
SNB-19 CNS = system: SNB-19 CNS
786-0 renal = system: 786-0 renal
HS 578T breast = system: HS 578T breast
CAKI-1 renal = system: CAKI-1 renal
NCI-H460 lung = system: NCI-H460 lung
OVCAR-8 ovarian = system: OVCAR-8 ovarian
HOP-62 NSCLC = system: HOP-62 NSCLC
BT-549 breast = system: BT-549 breast
HL-60(TB) leukemia = system: HL-60(TB) leukemia
ACHN renal = system: ACHN renal
MDA-MB-435 = system: MDA-MB-435
NCI-H23 lung = system: NCI-H23 lung
RXF 393 renal = system: RXF 393 renal
SF-295 CNS = system: SF-295 CNS
MALME-3M melanoma = system: MALME-3M melanoma
NCI-H522 lung = system: NCI-H522 lung
UACC-62 melanoma = system: UACC-62 melanoma
SK-MEL-5 melanoma = system: SK-MEL-5 melanoma
HT29 colon = system: HT29 colon
COLO 205 colon = system: COLO 205 colon
T-47D breast = system: T-47D breast
MDA-MB-231 breast = system: MDA-MB-231 breast
DU-145 prostate = system: DU-145 prostate
PC-3 prostate = system: PC-3 prostate
MOLT-4 leukemia = system: MOLT-4 leukemia
SK-MEL-28 melanoma = system: SK-MEL-28 melanoma
SW-620 colon = system: SW-620 colon
KM12 colon = system: KM12 colon
HCT-15 colon = system: HCT-15 colon
HOP-92 NSCLC = system: HOP-92 NSCLC
NCI/ADR-RES ovarian = system: NCI/ADR-RES ovarian
M14 melanoma = system: M14 melanoma
HCC-2998 colon = system: HCC-2998 colon
UACC-257 melanoma = system: UACC-257 melanoma
SF-539 CNS = system: SF-539 CNS
RPMI-8226 leukemia = system: RPMI-8226 leukemia
SK-OV-3 ovarian = system: SK-OV-3 ovarian
OVCAR-5 ovarian = system: OVCAR-5 ovarian
MCF7 breast = system: MCF7 breast
HCT-116 colon = system: HCT-116 colon
UO-31 renal = system: UO-31 renal

With `O=C(Nc1ccc(Cl)cc1F)c1cc(Cl)ccc1O` the GI50 (K-562 leukemia) was 361 nM, the TGI (K-562 leukemia) was > 59200 nM and the GI50 (NCI-H226 lung) was 429 nM. It also gave a TGI (NCI-H226 lung) of 7210 nM, a GI50 (EKVX NSCLC) of 891 nM and a TGI (EKVX NSCLC) of 8270 nM. The GI50 (OVCAR-3 ovarian) was 412 nM, the TGI (OVCAR-3 ovarian) was > 20500 nM and the GI50 (OVCAR-4 ovarian) was 340 nM. The TGI (OVCAR-4 ovarian) was > 100000 nM, the GI50 (SF-268 CNS) was 520 nM and the TGI (SF-268 CNS) was > 27600 nM. The GI50 (IGROV1 ovarian) was 247 nM, the TGI (IGROV1 ovarian) was > 100000 nM and the GI50 (A498 renal) was 260 nM. The TGI (A498 renal) was 924 nM, the GI50 (A549 NSCLC) was 1340 nM and the TGI (A549 NSCLC) was > 100000 nM. The GI50 (CCRF-CEM leukemia) was 1620 nM, the TGI (CCRF-CEM leukemia) was > 44900 nM and the GI50 (SK-MEL-2 melanoma) was 338 nM. The TGI (SK-MEL-2 melanoma) was 1720 nM, the GI50 (U251 CNS) was 466 nM and the TGI (U251 CNS) was > 100000 nM. The GI50 (TK-10 renal) was 1310 nM, the TGI (TK-10 renal) was > 31200 nM and the GI50 (SN12C renal) was 345 nM. For the same compound, the TGI (SN12C renal) was 3950 nM, the GI50 (SNB-75 CNS) was 456 nM and the TGI (SNB-75 CNS) was 3770 nM. The GI50 (SR leukemia) was 2200 nM, the TGI (SR leukemia) was > 49300 nM and the GI50 (SNB-19 CNS) was 413 nM. For the same compound, the TGI (SNB-19 CNS) was > 100000 nM, the GI50 (786-0 renal) was 1090 nM and the TGI (786-0 renal) was 7030 nM. The GI50 (HS 578T breast) was 341 nM, the TGI (HS 578T breast) was 3650 nM and the GI50 (CAKI-1 renal) was 298 nM. The TGI (CAKI-1 renal) was 2520 nM, the GI50 (NCI-H460 lung) was 440 nM and the GI50 (OVCAR-8 ovarian) was 619 nM. The TGI (OVCAR-8 ovarian) was > 37200 nM, the GI50 (HOP-62 NSCLC) was 999 nM and the TGI (HOP-62 NSCLC) was > 24500 nM. For the same compound, the GI50 (BT-549 breast) was 379 nM, the TGI (BT-549 breast) was 2040 nM and the GI50 (HL-60(TB) leukemia) was 389 nM. The TGI (HL-60(TB) leukemia) was 1960 nM, the GI50 (ACHN renal) was 532 nM and the TGI (ACHN renal) was > 88000 nM. The GI50 (MDA-MB-435) was 499 nM, the TGI (MDA-MB-435) was 5260 nM and the GI50 (NCI-H23 lung) was 294 nM. It also gave a TGI (NCI-H23 lung) of 1910 nM, a GI50 (RXF 393 renal) of 437 nM and a TGI (RXF 393 renal) of 4730 nM. For the same compound, the GI50 (SF-295 CNS) was 990 nM, the TGI (SF-295 CNS) was 2670 nM and the GI50 (MALME-3M melanoma) was 256 nM. For the same compound, the TGI (MALME-3M melanoma) was 1170 nM, the GI50 (NCI-H522 lung) was 337 nM and the GI50 (UACC-62 melanoma) was 279 nM. For the same compound, the TGI (UACC-62 melanoma) was 1110 nM, the GI50 (SK-MEL-5 melanoma) was 209 nM and the TGI (SK-MEL-5 melanoma) was 529 nM. For the same compound, the GI50 (HT29 colon) was 3200 nM, the TGI (HT29 colon) was > 31200 nM and the GI50 (COLO 205 colon) was 2410 nM. The TGI (COLO 205 colon) was 5920 nM, the GI50 (T-47D breast) was 253 nM and the GI50 (MDA-MB-231 breast) was 554 nM. The TGI (MDA-MB-231 breast) was 3460 nM, the GI50 (DU-145 prostate) was 915 nM and the TGI (DU-145 prostate) was > 42800 nM. For the same compound, the GI50 (PC-3 prostate) was 1280 nM, the TGI (PC-3 prostate) was 5640 nM and the GI50 (MOLT-4 leukemia) was 1140 nM. The TGI (MOLT-4 leukemia) was 3990 nM, the GI50 (SK-MEL-28 melanoma) was 364 nM and the TGI (SK-MEL-28 melanoma) was 1840 nM. The GI50 (SW-620 colon) was 700 nM, the TGI (SW-620 colon) was > 22500 nM and the GI50 (KM12 colon) was 1510 nM. For the same compound, the TGI (KM12 colon) was 4280 nM, the GI50 (HCT-15 colon) was 519 nM and the GI50 (HOP-92 NSCLC) was 157 nM. It also gave a TGI (HOP-92 NSCLC) of 553 nM, a GI50 (NCI/ADR-RES ovarian) of 364 nM and a TGI (NCI/ADR-RES ovarian) of 2380 nM. For the same compound, the GI50 (M14 melanoma) was 437 nM, the TGI (M14 melanoma) was 2780 nM and the GI50 (HCC-2998 colon) was 2230 nM. The TGI (HCC-2998 colon) was 8770 nM, the GI50 (UACC-257 melanoma) was 482 nM and the TGI (UACC-257 melanoma) was 6890 nM. The GI50 (SF-539 CNS) was 432 nM, the TGI (SF-539 CNS) was 4580 nM and the GI50 (RPMI-8226 leukemia) was 302 nM. It also gave a TGI (RPMI-8226 leukemia) of 1750 nM, a GI50 (SK-OV-3 ovarian) of 576 nM and a TGI (SK-OV-3 ovarian) of 8600 nM. The GI50 (OVCAR-5 ovarian) was 2740 nM, the TGI (OVCAR-5 ovarian) was > 100000 nM and the GI50 (MCF7 breast) was 442 nM. It also gave a TGI (MCF7 breast) of 10200 nM, a GI50 (HCT-116 colon) of 431 nM and a TGI (HCT-116 colon) of 2240 nM. It also gave a GI50 (UO-31 renal) of 208 nM and a TGI (UO-31 renal) of 1920 nM.
